Results on 12 molecules are retold here after US10220046B2, “Compositions and methods for disease treatment using nanoparticle delivered compounds” (THE REGENTS OF THE UNIVERSITY OF MICHIGAN, priority 2014, dated 2019).

The nature of data set [1]: sHDL nanoparticle formation and loading with additional anticancer agents. The note with it: agent in place of WGA-TA. It is filed as physicochemical. From the text:
The composition as described in Example was made with various anticancer agents in place of WGA-TA.

Data set [2] is described as follows: Metabolite analysis in mouse plasma by LC-MS/MS. The following applies: IV 4 mg/kg WGA-TA in dextran formulation, 30 minutes after administration. The format is in vivo, CD-1 white mice.
Method: CD-1 white mice were given an IV dosage of 4 mg/kg WGA-TA in dextran formulation. Samples of blood was collected at different time points in heparin treated tubes and the plasma collected after centrifugation at 13,000 rpm for 10 min and was frozen at −80° C. for later analysis. For the evaluation of metabolites, 300 uL of ice-cold acetonitrile was added to 100 uL of the mouse plasma and then centrifuged at 4° C. in 15000 rpm for 10 minutes. The top supernatant was dried under a stream of nitrogen gas. The residue was finally reconstituted in a 100 uL solution of 20% acetonitrile (80% water). Blank plasma needed for the control was prepared from untreated CD-1 white mice blood as above. As a negative control, blank plasma spiked with WGA-TA before extraction was used. The LC-MS/MS analysis was conducted using a Shimadzu HPLC system coupled with an API 4500 mass spectrometer (Applied Biosystems, MDS Sciex Toronto, Canada), equipped with an API electrospray ionization (ESI) source. Enhanced MS, product ion-scan, and MRM scan were used as a survey scan to identify metabolites of WGA-TA. Information dependent acquisition (IDA) was used to collect fragmentation of metabolite candidates or single experiment of enhanced product ion scan was applied to acquire fragmentation of metabolites after running survey scan. […]
For data set [3], the system named is SW13 cells. Put plainly: Mitochondrial membrane potential (TMRE). It is filed as cell-based, human. The following applies: combination with sHDL vs. drug alone, 24 h. Here is the method:
(§1) SW13 and NCI-H295R were seeded in a 96 well black wall plate. Once attached, they were treated with the drugs as described above. 24 h post drug treatment, 500 nM tetramethylrhodamine, ethyl ester (TMRE) was added and the cells were incubated for 20 minutes at 37° C. and the fluorescent signal was measured after washing using a microplate reader (excitation=549, emission=575). 100 nM FCCP (carbonyl cyanide 4-(trifluoromethoxy)phenylhydrazone) was added to cells 10 minutes before the addition of TMRE as a negative control.

The subject of data set [4] is NCI-H295R cells. The data set can be described thus: Mitochondrial membrane potential (TMRE). The format is cell-based, human. The following applies: combination with sHDL vs. drug alone, 24 h. Here is the method:
as §1

Data set [5] concerns SW13 cells. Put plainly: Apoptosis by flow cytometry (annexin V-FITC/propidium iodide). The format is cell-based, human. The note with it: combined with sHDL vs. drug alone, 24 h. Here is the method:
(§2) Following treatment, cells were washed, re-suspended in annexin binding buffer and stained using annexin V-FITC/Propidium iodide as previously described (Subramanian et al., World J. Surg., 2014, 38(6): 1343-52). Induction of apoptosis was measured using the CyAn ADP Analyzer (Beckman Coulter, Inc., Indianapolis, Ind.).
A general note: In flow cytometry, cells or beads pass a laser one at a time.

In data set [6] the test system is NCI-H295R cells. The data set is described as above. The note with it: combination with sHDL vs. drug alone, 24 h. The format is cell-based, human. Here is the method: as §2
The next data set relates to NCI-H295R MCAs. The data set can be described thus: Three dimensional multicellular aggregate (MCA) treatment. It is filed as cell-based, human. The following applies: in combination with 50 μg/ml sHDL, 24 h. From the text: (§3) To evaluate the translational potential of the combination therapy, three-dimensional multicellular aggregates were developed to mimic the in vivo tumor model as described by Jain et al. (Jain et al., Endocrine-related cancer. 2013 June; 20(3):361-70, herein incorporated by reference in its entirety). […] Untreated, sHDL alone treated cells served as controls. The MCAs were photographed before and after treatment and the MCAs were quantified by Image J software (NIH) as described by Jain et al.

For a further data set, the system named is SW13 MCAs. The description is as above. The format is cell-based, human. The following applies: in combination with 50 μg/ml sHDL, 24 h.
Source text: as §3

In data set [7] the test system is cortisol production of NCI-H295R cells. The data set can be described thus: Cortisol immunoassay of culture supernatant. The note with it: 24 h. It is filed as cell-based, human. Here is the method:
The cortisol immunoassay (Alpco, Salem, N.H.) was used to quantitate cortisol levels in the culture supernatant of steroid producing NCI-H295R cells after treatment with drug combinations (same as in clonogic assay) for 24 h per the manufacturer instructions. Briefly, culture supernatant after treatment was added to the antibody coated-plates containing assay buffer (45 minutes at 25° C.). After washing, tetra methyl benzidine (TMB) substrate was incubated at RT and absorbance measured using a Synergy Neo reader (BioTek, Winooski, Vt.).

Data set [8] relates to genes involved in steroidogenesis in NCI-H295R cells. Put plainly: Real time RT-PCR of genes involved in steroidogenesis. It is filed as cell-based, human. The following applies: combination with sHDL compared to monotherapy, 24 h; decreased for P and M, increased for E. How it is done:
RNA from the NCI-H295R cells after drug treatment for 24 h was prepared using Qiagen RNA isolation kit (Qiagen Sciences, Valencia, Calif.). Approximately 500 ng of RNA was reverse transcribed using superscript RT kit from Life Technologies (Grand Island, N.Y.). qPCR was performed in a step-one RT PCR machine using the gene specific primer sets (Table 3) as published (11). Relative gene expression levels were calculated after normalization with internal control.
(In qPCR the cycle at which signal appears reflects the starting amount.)

Another data set deals with SW13 and NCI-H295R cells. Put plainly: Cell viability assay (CellTiter-Glo) and combination index. The format is cell-based, human. Here is the method:
Serial dilutions were made from the starting concentrations and viability of cells was then measured based on quantification of the ATP levels after treatment with CellTiter-Glo luminescent assay reagent as per the manufacturer's instruction (Promega, Madison, Wis.) with luminescence quantified using a BioTek Synergy Neo plate reader (BioTek, Winooski, Vt.). […] For all cell-based experiments, the experimental control group was defined, unless stated otherwise, as untreated cells or cells treated with single drug alone (when comparing to combination regimens).

In data set [9] the test system is SW13 cells. Put plainly: Colony formation assay. It is filed as cell-based, human. The note with it: clonogenic assay, 24 h treatment, with 50 μg/ml sHDL. How it is done: (§4) NCI-H295R and SW13 cells were plated in 6-well plates and allowed to attach. […] The medium was changed and surviving cells allowed to grow colonies of 50 cells or more for two weeks, then washed, fixed, and stained with coomassie blue and counted. Total colony numbers were normalized to untreated controls.

Data set [10] has as its system NCI-H295R cells. The data set can be described thus: Colony formation assay. The format is cell-based, human. The following applies: clonogenic assay, 24 h treatment, with 50 μg/ml sHDL. How it is done:
as §4

In data set [11] the test system is adrenocortical carcinoma (ACC). The following applies: advanced ACC patients; cited from earlier work.
For the next data set, the target named is T1, LCAT (Homo sapiens, UniProt P04180).
T1 sequence (P04180 25-440): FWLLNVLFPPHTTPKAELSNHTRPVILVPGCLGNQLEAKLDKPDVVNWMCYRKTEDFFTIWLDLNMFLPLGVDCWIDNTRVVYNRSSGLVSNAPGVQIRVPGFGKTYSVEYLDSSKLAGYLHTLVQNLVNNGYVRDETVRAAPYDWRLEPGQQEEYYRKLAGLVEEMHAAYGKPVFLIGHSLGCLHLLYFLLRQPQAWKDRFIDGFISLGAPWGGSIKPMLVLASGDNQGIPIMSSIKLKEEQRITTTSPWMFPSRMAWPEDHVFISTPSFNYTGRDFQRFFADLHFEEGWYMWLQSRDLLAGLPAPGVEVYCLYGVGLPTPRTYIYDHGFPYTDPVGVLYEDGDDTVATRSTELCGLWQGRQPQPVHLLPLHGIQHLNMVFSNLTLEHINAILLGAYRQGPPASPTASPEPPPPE
The note with it: cited from earlier work.

Non-standard residues stand in square brackets, D forms with d. No end group written: not given here. Where only a bound is given, the exact number is not on record here.

For `CC[C@@]1(O)C(=O)OCc2c1cc1n(c2=O)Cc2cc3cc(O)ccc3nc2-1` [10-hydroxy camptothecin], in data set [1], the “nanoparticle formation and loading in sHDL” value is “Successful nanoparticle formation and loading”.

Turning to `O=NN(CCCl)C(=O)NC1CCCCC1` [CCNU, lomustine], the “nanoparticle formation and loading in sHDL” value in [1] is “Successful nanoparticle formation and loading”.

Turning to `CC(=O)OCC1=C(C)C[C@H]([C@@H](C)C2CC[C@H]3[C@@H]4C[C@H]5O[C@]56[C@@H](OC(C)=O)C=CC(=O)[C@]6(COC(C)=O)[C@H]4CC[C@]23C)OC1=O` (stereo partly shown) [WGA-TA, 4, 19, 27-triacetyl withalongolide A], the “metabolic identification in plasma” value in data set [2] was “three deacetylation products”.

`N.N.[Cl][Pt][Cl]` [cisplatin]: the results for the “reduction in mitochondrial potential ΔΨ” value in the data set on SW13 cells [3] and in the data set with NCI-H295R cells [4] were 6.5% and 13.09%, respectively. Moreover, the “increase of necrotic cell death” value in the data set with SW13 cells [5] was determined as 14.71%. Also, the “increase in the percentage of apoptotic cells (early and late)” value (“increase in the percentage” for short) with NCI-H295R cells [6] is 6.16%. Besides, the “reduction in MCAs” value is listed as “Approximately 20%” in the data set on NCI-H295R MCAs and “approximately 50%” in the data set with SW13 MCAs. Besides, the entries for the “decrease of cortisol production levels” value in [7] (drug alone vs. controls) and in [7] (in combination with sHDL) were 8.39% and 82%, respectively. Besides, in data set [8], the HSD3B2 level was found to be 0.1 fold change.

Regarding `CC(=O)O[C@@]12CO[C@@H]1C[C@H](O)[C@@]1(C)C(=O)[C@H](O)C3=C(C)[C@@H](OC(=O)[C@H](O)[C@@H](NC(=O)OC(C)(C)C)c4ccccc4)C[C@@](O)([C@@H](OC(=O)c4ccccc4)[C@H]21)C3(C)C` [docetaxel], the “nanoparticle formation and loading in sHDL” value in data set [1] was “Successful nanoparticle formation and loading”.

As to `COc1cccc2c1C(=O)c1c(O)c3c(c(O)c1C2=O)C[C@@](O)(C(=O)CO)C[C@@H]3O[C@H]1C[C@H](N)[C@H](O)[C@H](C)O1` [doxorubicin], the “combination index (CI)” value with SW13 and NCI-H295R cells (combined with sHDL nanoparticles (25 and 50 μg/ml), Chou-Talalay, 72 h) is listed as more than 1.

For `COc1cc([C@@H]2c3cc4c(cc3[C@@H](O[C@@H]3O[C@@H]5CO[C@@H](C)O[C@H]5[C@H](O)[C@H]3O)[C@H]3COC(=O)[C@H]23)OCO4)cc(OC)c1O` [etoposide], the “higher reduction in viability, combination compared to single drug alone” value in the data set with SW13 cells [9] turned out to be 39.52%; in the data set on NCI-H295R cells [10], 44.6%. Further, the figures for the “reduction in mitochondrial potential ΔΨ” value with SW13 cells [3] and in the data set on NCI-H295R cells [4] were 31.54% and 9.2%, respectively. The “increase of necrotic cell death” value in the data set with SW13 cells [5] turned out to be 21.33%. For the same molecule, in the data set with NCI-H295R cells [6], the “increase in the percentage” value is given as 36.46%. Besides, the “reduction in MCAs” value was “approximately 50%” in the data set with NCI-H295R MCAs and approximately 25% with SW13 MCAs. Also, the “decrease of cortisol production levels” value is recorded as 82.1% in data set [7] (drug alone vs. controls) and “not significantly different” in data set [7] (in combination with sHDL). Further, in [8], the HSD3B2 level came to 2.1 fold change.

Take `Clc1ccc(C(c2ccccc2Cl)C(Cl)Cl)cc1` (stereo not shown) [mitotane]: in [11], the “improvement in survival rate” value is on record as 14-50 months. Further, the initial response rates in [11] is 20-30%. Also, the “higher reduction in viability, combination compared to single drug alone” value in the data set on SW13 cells [9] is reported as 22.3%; with NCI-H295R cells [10] it was 39.1%. The entries for the “reduction in mitochondrial potential ΔΨ” value with SW13 cells [3] and in the data set on NCI-H295R cells [4] were 19.8% and 14.49%, respectively. The “increase of apoptotic cell death” value in the data set on SW13 cells [5] was determined as 11.9%. In the data set on NCI-H295R cells [6], the “increase in the percentage” value amounted to 36.01%. Further, the “reduction in MCAs” value is approximately 30% in the data set with NCI-H295R MCAs and “approximately 50%” with SW13 MCAs. The “decrease of cortisol production levels” value was 84.7% in [7] (drug alone vs. controls) and “not significantly different” in [7] (in combination with sHDL). Besides, in [8], the HSD3B2 level is given as 0.2 fold change. In addition, the IC50 value entry with SW13 and NCI-H295R cells (SW13 cells compared to NCI-H295R cells) was “higher IC50 value”.

`CC(=O)O[C@H]1C(=O)[C@@]2(C)[C@H]([C@H](OC(=O)c3ccccc3)[C@]3(O)C[C@H](OC(=O)[C@H](O)[C@@H](NC(=O)c4ccccc4)c4ccccc4)C(C)=C1C3(C)C)[C@]1(OC(C)=O)CO[C@@H]1C[C@@H]2O` [paclitaxel]: the “nanoparticle formation and loading in sHDL” value in data set [1] was “Successful nanoparticle formation and loading”.

“Ac-PVLDEFREKLNEELEALKQKLK-NH2 [consensus 22-mer]”: the “LCAT activation as compared with native ApoA-I” value on LCAT is listed as 10%.

Consider “PVLELFENLLERLLDALQKKLK (listed as Homo sapiens) [SEQ ID NO:2, ApoA-I agonist peptide]”, for which, in the data set with LCAT, the “LCAT activation as compared with native ApoA-I” value is 86%.

As for “pVLELFENLLERLLDALQKKLK ([dP]VLELFENLLERLLDALQKKLK) [SEQ ID NO:3, ApoA-I agonist peptide with D-Pro at X1]”, the “LCAT activation as compared with native ApoA-I” value in the data set with LCAT is 111%.
